Reference: patent US20240201205A1, “METHOD FOR DETECTING NEUROLOGICAL DISEASES USING SUPRAMOLECULE POLYMER THERAPEUTICS” (The Regents of the University of California, priority 2022, published 2024)

Tests used:
[1] = target: T1, YFP-tagged full length 0N4R-Tau carrying a P301S mutation (T24 cells) (Homo sapiens, UniProt P10636, P618S); assay: Tau-AD high throughput screening (counter screen); format: cell-based; settings: final test concentration of 10 μM; T24 cells transfected with 416-AD11A lysate; 72 h; control is DMSO
T1 construct: C-terminally YFP-tagged full length 0N4R-Tau carrying a P301S mutation (T24 cells); expressed in transfected cells
T1 sequence (P10636 1-383 isoform P10636-6 P243S): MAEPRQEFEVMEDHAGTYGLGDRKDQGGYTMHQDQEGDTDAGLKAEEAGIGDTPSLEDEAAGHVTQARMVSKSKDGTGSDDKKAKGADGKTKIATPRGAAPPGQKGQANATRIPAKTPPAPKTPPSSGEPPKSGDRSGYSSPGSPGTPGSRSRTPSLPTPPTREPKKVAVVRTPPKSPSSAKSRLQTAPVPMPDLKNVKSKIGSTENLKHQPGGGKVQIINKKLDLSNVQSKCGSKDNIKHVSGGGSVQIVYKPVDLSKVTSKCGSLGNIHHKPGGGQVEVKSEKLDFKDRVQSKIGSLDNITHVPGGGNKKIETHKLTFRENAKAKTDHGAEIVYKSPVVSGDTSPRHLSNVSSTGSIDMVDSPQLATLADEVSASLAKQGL
Description: A fragment of the Middle Tempral Gyrus (MTG) from Alzheimer's Disease (AD) patient 2217 was resuspended in 9 volumes of PBS (ml/g of brain) and homogenized 3×12 seconds using a probe homogenizer (Thomas Scientific) with disposable Omni Tip plastic homogenizing probes (Thomas Scientific Cat No 3409Y77) to generate a 10% brain homogenate (10% AD11-BH). The 10% AD11-BH was clarified of insoluble debris by centrifugation at 800×g for 5 minutes. The resulting supernatant was collected and the protein concentration of this clarified BH (AD11-CBH) was determined by bicinchoninic acid assay (BCA) (Thermo Fisher Cat No. 23227). HEK293 cells stably expressing a C-terminally Clover-tagged truncated 4R-Tau^243-382 transgene containing the P301L and V337M mutations and a C-terminally Ruby-tagged truncated 3R-Tau^243-382 transgene containing the L266V and V337M mutations (128/139 cells) were transfected with the AD11-CBH using lipofectamine 2000 (LF2K) (Thermo Fisher Cat No. 11668500). Briefly, 0.32 μl of LF2K were diluted in 5 μl Opti-MEM (Thermo Scientific Cat No 31985070) per well of a 384-well plate and incubated for 5 min at room temperature (RT). This mixture was added to 0.32 μg of AD11-CBH diluted in 5 μl of PBS per well of a 384-well plate and vortex briefly. The transfection mixture was incubated at room temperature for 90 min. The transfection complexes were subsequently added to a single well of a 384-well plate containing 3500 128/139 cells. After 3 days the cells were harvested, counted and plated at a density of 1 cell/well in a 96-well plate. A clonal cell line containing Clover and Ruby positive Tau aggregates was selected and termed 416-AD11A cells. Following the expansion of these 416-AD11A cells, a cell lysate was prepared by freeze/thaw. The cells from a confluent T175 flask were harvested in 1 ml of PBS containing 1× protease inhibitor cocktail by scraping. The cell suspension was subjected to 4 cycles of freezing in liquid nitrogen for 5 minutes followed by thawing at 37° C. for 5 minutes. The resulting cell lysate was centrifuged at 2000 RPM for 10 minutes to remove the cell debris and the protein concentration of the resulting 416-AD11A lysate was determined by BCA assay and aliquots frozen for future use.
HEK293 cells stably expressing C-terminally YFP-tagged full length 0N4R-Tau carrying a P301S mutation (T24 cells) are plated at a density of 4000 cells per well of a 384-well black walled, clear bottom plate (Greiner Cat No 5678-1091Q) in 60 μl of complete DMEM (DMEM (Corning Cat No 10-013-CV), 10% FBS (VWR Cat No 97068-085, 0.5% Penicillin/streptomycin (Gibco Cat No 15140-122)) containing 0.1 μg/ml Hoechst Dye (Thermo Scientific Cat No H3570). Transfection complexes are prepared by diluting 0.15 μg of 416-AD11A lysate or HEK lysate in 5 μl of PBS per well to be transfected and 0.15 μl of Lipofectamine 2000 (LF2K) (ThermoFisher Cat No 11668500) in 5 μl of Opti-MEM per well to be transfected in separate tubes. The pre-diluted 416-AD11A or HEK lysates and LF2K are subsequently mixed and allowed to incubate for 90 minutes at RT. A 10 μl aliquot of the 416-AD11A or HEK transfection complexes is added to the appropriate wells of the 384-well plate containing the T24 cells using the Bravo liquid handling platform (Agilent). Wells A23-P24 of the 384-well plate are transfected with HEK lysate to act as a reference point for spontaneous aggregation of 0N4R^P301S and for transfection related toxicity. The dilution of test compounds is performed using the Bravo liquid handling platform (Agilent). The control is DMSO in the absence of any test compound. Briefly, 1 μl of each test compound (5 mM stock) in the 384-well test plate was transferred to a 384-well plate (Greiner Cat No 781280) containing 61.5 μl of complete DMEM to generate a working stock of compounds at 80 μM. […]

[2] = target: T2, α-synuclein fibrils isolated from an MSA patient sample (Homo sapiens, UniProt P37840); assay: Cryo-EM co-structures of compounds with α-synuclein fibrils from MSA patient; format: binding; settings: for binding to α-synuclein fibrils (cryo-EM co-structure): fibrils from MSA patient sample, 20 μM ligand
T2 construct: fresh-frozen tissue from the cerebellum of patients clinically and neuropathologically diagnosed with MSA; from tissue; host or cells: cerebellum of MSA patients (sarkosyl-insoluble filament preparation)
Description: MSA filament purification. Filament purification was based on Schweigenhauser et al., 2020^2. Briefly, 1-2 g of fresh-frozen tissue from the cerebellum of patients clinically and neuropathologically diagnosed with MSA was homogenized at 20 mL/g of tissue in 10 mM Tris-HCl (pH 7.4), 800 mM NaCl, 1 mM EGTA, and 10% sucrose. A final concentration of 1% N-laurosarcosinate (w/v) was added to the homogenates, and these mixtures were incubated at 37° C. for 30 minutes. Homogenates were then centrifuged at 10,000 g for 10 minutes, and the supernatant was kept and then centrifuged at 100,000 g for 20 minutes. The pellets were resuspended at 500 μL/g of frozen tissue in 10 mM Tris-HCl (pH 7.4), 800 mM NaCl, 1 mM EGTA, and 10% sucrose. This was followed by another centrifugation at 3,000 g for 5 minutes. The supernatant was kept and diluted threefold with 50 mM Tris-HCl (pH 7.4), 150 mM NaCl, 10% sucrose, and 2% sarkosyl, followed by another centrifugation at 150,000 g for 1 hour. The final pellet resuspended in 30 mM Tris-HCl (pH 7.4) at a concentration of 100 μL/g frozen tissue.
Cryo-EM sample preparation and data collection. Purified frontal cortex and cerebellum tissue was incubated with 20 μM ligand for 45 minutes prior to freezing. For the tau PHF, 3 μL of purified filaments mixed with GTP-1 was added to a glow-discharged 200 mesh 1.2/1.3R Au Quantifoil grid for 10 seconds before blotting for 2 seconds, and then a second 3 μL aliquot was added for 3 seconds and blotted for 1 second before being plunge frozen in liquid ethane using a FEI Vitrobot Mark IV (Thermo Fisher Scientific). For the synuclein ligands, 3 μL of purified filaments mixed with compound was added to a 200 mesh 1.2/1.3R Au Quantifoil grid coated with a 2 nm thick layer of carbon, which had not been glow discharged. After 30 seconds, grids were blotted for 7.5 seconds at room temperature and 100% humidity. Grids were plunge frozen in liquid ethane using a FEI Vitrobot Mark IV. […] A defocus range of 0.8 to 1.8 μm was used with a total exposure time of 2.024 seconds fractionated into 0.025 seconds subframes. The total dose for each movie was 46 electrons/Å^2. Movies were motion-corrected using MotionCor2^3 in Scipion^4 and were Fourier cropped by a factor of 2 to a final pixel size of 0.834 Å per pixel.
Image processing. All image processing was done in RELION 4^5, and the same workflow was used for each dataset. Dose-weighted summed micrographs were imported into RELION 4. The contrast transfer function was estimated using CTFFIND-4.1^6. Filaments were manually picked and then segments were extracted with a box size of 900 pixels downscaled to 300 pixels. Contaminants and segments contributing to straight filaments were separated out using reference-free 2D class averaging. The remaining segments were re-extracted with a box size of 288 pixels without downscaling. An initial model was generated from a cylinder in RELION. One or more rounds of 3D classification with image alignment were performed, with helical rise and […] parameters fixed to eliminate obvious junk particles. One or more rounds of 3D auto-refinement was run using the best map from 3D classification low-pass filtered to 10 Å, allowing rise and twist parameters to vary. Maps were sharpened using the standard post-processing procedures in RELION.
Model building, refinement, and analysis. Prior to ligand placement, a single strand of a previously solved MSA or tau PHF filament structure^2 (PDB: 6XYQ) was refined against the density using Phenix^7. Refinement of the ligand binding pocket was done in COOT^8. Ligands were placed by hand in the density using Chimera^9. This model was then translated to give a stack spanning 5 rungs.

CNC(=O)c1ncc2c(-c3ccc(F)cc3)nn(Cc3ccc(F)cc3)c2n1 [Compound 261]
AD Tau Aggregates (% control) [1]: 87 % control

Cc1ccnn1-c1nc(-n2cc3ccn(C(F)(F)F)c3nc2=O)c(-c2ccc(F)cc2)o1 [Compound 240]
AD Tau Aggregates (% control) [1]: 95 % control

CCc1ccccc1-c1nn(-c2ccc(F)cc2)c2nc(C(=O)NC)ncc12 [Compound 245]
AD Tau Aggregates (% control) [1]: 120 % control

CC(=O)Nc1ncc2c(-c3ccccc3)nn(Cc3cncc(F)c3)c2n1 [Compound 267]
AD Tau Aggregates (% control) [1]: 91 % control

Cc1nccc2cc(-c3nc(-n4ccc5cccnc5c4=O)c(-c4ccc(C(F)(F)F)cc4)o3)ccc12 [compound 427]
binding to α-synuclein fibrils (cryo-EM co-structure) [2]: bound to fibrils isolated from an MSA patient sample

O=c1nc2c(ccn2C(F)(F)F)cn1-c1nc(-c2ccnc(C3CC3)n2)oc1-c1ccc(F)cc1 [compound 293]
binding to α-synuclein fibrils (cryo-EM co-structure) [2]: bound to fibrils isolated from an MSA patient sample

CNC(=O)c1ncc2c(-c3ccc(F)cc3)nn(Cc3ccnc(F)c3)c2n1 [Compound 259]
AD Tau Aggregates (% control) [1]: 99 % control

Cc1cc(-c2nc(-n3cc4ccn(C5CC5)c4nc3=O)c(-c3ccc(F)c(F)c3)o2)ncc1F [Compound 234]
AD Tau Aggregates (% control) [1]: 85 % control

CC(=O)Nc1ncc2c(-c3ccccc3C)nn(Cc3ccccc3)c2n1 [Compound 266]
AD Tau Aggregates (% control) [1]: 98 % control

CNC(=O)c1ncc2c(-c3ccccc3)nn(-c3ccc(F)cc3)c2n1 [Compound 246]
AD Tau Aggregates (% control) [1]: 120 % control

COC(=O)Nc1ncc2c(-c3ccccc3)nn(-c3ccccc3)c2n1 [Compound 274]
AD Tau Aggregates (% control) [1]: 94 % control

CNC(=O)c1ncc2c(-c3ccccc3)nn(Cc3ccccc3)c2n1 [Compound 248]
AD Tau Aggregates (% control) [1]: 95 % control

CCC(=O)Nc1ncc2c(-c3ccccc3)nn(Cc3ccc(OC)cc3)c2n1 [Compound 269]
AD Tau Aggregates (% control) [1]: 100 % control

CNC(=O)c1ncc2c(-c3cc4c(cnn4C)cc3F)nn(Cc3ccccc3)c2n1 [Compound 253]
AD Tau Aggregates (% control) [1]: 96 % control

CNC(=O)c1ncc2c(-c3cccc4c3OC(F)(F)O4)nn(Cc3ccccc3)c2n1 [Compound 254]
AD Tau Aggregates (% control) [1]: 100 % control

CNc1nc(=O)n(-c2nc(-c3cccc(C)c3)oc2-c2ccc(Cl)c(F)c2)cc1F [Compound 83, 1-(5-(4-chloro-3-fluorophenyl)-2-(m-tolyl)oxazol-4-yl)-5-fluoro-4-(methylamino)pyrimidin-2(1H)-one]
binding to α-synuclein fibrils (cryo-EM co-structure) [2]: bound to fibrils isolated from an MSA patient sample

CC(=O)Nc1ncc2c(-c3ccccc3)nn(C(C)c3ccccc3)c2n1 (stereo not drawn) [Compound 265]
AD Tau Aggregates (% control) [1]: 110 % control

O=c1nc2c(ccn2C(F)(F)F)cn1-c1nc(N2Cc3ccccc3C2)oc1-c1ccc(F)cc1 [Compound 242]
AD Tau Aggregates (% control) [1]: 99 % control

CNC(=O)c1ncc2c(-c3ccc(F)cc3)nn(Cc3cccc(F)c3)c2n1 [Compound 260]
AD Tau Aggregates (% control) [1]: 95 % control

CNC(=O)c1ncc2c(-c3ccnc(C(C)(F)F)n3)nn(-c3ccc(Cl)cc3)c2n1 [Compound 22, 1-(4-chlorophenyl)-3-(2-(1,1-difluoroethyl)pyrimidin-4-yl)-N-methyl-1H-pyrazolo[3,4-d]pyrimidine-6-carboxamide]
binding site on α-synuclein ([2]; cryo-EM, residues of SEQ ID NO: 9): bound to residues 86-99 of α-synuclein
binding to α-synuclein fibrils (cryo-EM co-structure) [2]: bound to fibrils isolated from an MSA patient sample

O=C(Cn1cc(-c2ccoc2)c(=O)c2ccc(N3CCCC3)cc21)Nc1ccccc1C(F)(F)F [Compound 149, 2-[3-(furan-3-yl)-4-oxo-7-(pyrrolidin-1-yl)-1,4-dihydroquinolin-1-yl]-N-[2-(trifluoromethyl)phenyl]acetamide]
binding to α-synuclein fibrils (cryo-EM co-structure) [2]: bound to fibrils isolated from an MSA patient sample

CC(=O)Nc1ncc2c(-c3ccccc3)nn(Cc3ccncc3)c2n1 [Compound 279]
AD Tau Aggregates (% control) [1]: 92 % control

CNC(=O)c1ncc2c(-c3ccc(F)cc3)nn(CC3CCCCC3)c2n1 [Compound 258]
AD Tau Aggregates (% control) [1]: 110 % control

Cc1ccn(-c2nc(-n3cc4ccn(C(F)(F)F)c4nc3=O)c(-c3ccc(F)cc3)o2)n1 [Compound 241]
AD Tau Aggregates (% control) [1]: 98 % control

CNC(=O)c1ncc2c(-c3ccccc3Cl)nn(-c3ccc(F)cc3)c2n1 [Compound 244]
AD Tau Aggregates (% control) [1]: 100 % control

CC(=O)Nc1ncc2c(-c3ccccc3)nn(CC3CCCCC3)c2n1 [Compound 280]
AD Tau Aggregates (% control) [1]: 90 % control
